Columns and labels:
[1] = LS patients, long-term exposure; cited from earlier work
[2] = tested on: PBMCs from LS Rhesus macaques; experiment: IFNγ ELISpot assay with PBMCs from LS Rhesus macaques; assay type: cell-based; conditions: stimulated 48 h (FIG. 22B)
Description: FIG. 22A-B. Validation of the predicted neoAg in LS Rhesus macaques. A) Immunogenicity of neoAg peptide pools and deconvoluted neoAg with ELISpot assay. PBMCs from LS Rhesus macaques (n=4) were stimulated with […] and 12 individual peptides from the pools, concavalin A (+ve control), and DMSO (−ve control) for 48 h. B) ELISpot images. […] Spot forming Units for IFNγ secretion were analyzed and quantitated by ELISpot plate reader.
Since the ultimate goal is to develop a universal LS-cancer vaccine. the inventors then tested the immunogenicity of the ELISpot-reactive peptides in PBMCs from LS Rhesus macaques who carry a pathogenic mutation in the MLH1 gene with pathology similar to human LS. These animals. housed at MD Anderson Cancer Center, spontaneously develop CRC and serve as an ideal preclinical LS model for immune-interception strategies with neoAg vaccines. PBMCs from four different LS Rhesus were stimulated with four peptide pools and 12 individual peptides for ELISpot assays as indicated in FIG. 22A.

Q: With COc1ccc2cc([C@H](C)C(=O)O)ccc2c1 [naproxen] as the compound, how does the “resident immune cells within the mucosal tissue of the colon” value [1] read?
A: increase of resident immune cells within the mucosal tissue of the colon

Q: With “CELSR2: deconvoluted neoAg peptide from CELSR2, tested in LS Rhesus PBMCs (RLDKGNFAGA)” as the compound, how does the “immunogenicity of deconvoluted peptides in stimulated rhesus PBMC (ELISpot)” value [2] read?
A: except PLOD1 and CELSR2 were determined immunogenic
